Measurements as given in article PMC11672637, “7-O-Carboxylic Acid-Substituted 3-O-Alkyl Difluoroquercetin; An Aztreonam-Potentiating Agent Against Carbapenemase-Producing Pseudomonas aeruginosa Through Simultaneous Inhibition of Metallo-β-Lactamase and Efflux Pump” (Antibiotics, 2024).
Values after ≈ are worked out from the molar mass of the structure shown. Where two headings read alike, the source gives them in different places.

What was measured:
Assay type in all cases: cell-based, P. aeruginosa
PA-014, blaGES = experiment: MIC / checkerboard with ATM; details: for MIC: Pseudomonas aeruginosa, read-out: MIC of ATM with 5, PA-014
PA-027, blaIMP = experiment: MIC / checkerboard with ATM; details: for MIC: Pseudomonas aeruginosa, read-out: MIC of ATM with 5, PA-027
PA-035, blaGES = experiment: MIC / checkerboard with ATM; details: for MIC: Pseudomonas aeruginosa, read-out: MIC of ATM with 5, PA-035
PA-026, blaNDM = experiment: MIC / checkerboard with ATM; details: for MIC: Pseudomonas aeruginosa, read-out: MIC of ATM with 5, PA-026
[1] = test system: ATM-Susceptible CPPA (n = 11); experiment: MIC distribution over clinical isolates; details: Pseudomonas aeruginosa
PA-031, blaNDM = experiment: MIC / checkerboard with ATM; details: for MIC: Pseudomonas aeruginosa, read-out: MIC of ATM with 5, PA-031
PA-036, blaNDM = experiment: MIC / checkerboard with ATM; details: for MIC: Pseudomonas aeruginosa, read-out: MIC of ATM with 5, PA-036
PA-033, blaNDM = experiment: MIC / checkerboard with ATM; details: for MIC: Pseudomonas aeruginosa, read-out: MIC of ATM with 5, PA-033
PA-042, blaIMP/NDM = experiment: MIC / checkerboard with ATM; details: PA-042

`CC(C)(C)CCOc1c(-c2ccc(F)c(F)c2)oc2cc(OCC(=O)O)cc(O)c2c1=O` [Compound 5, 2-((2-(3,4-Difluorophenyl)-3-(3,3-dimethylbutoxy)-5-hydroxy-4-oxo-4H-chromen-7-yl)oxy)acetic Acid] was tested, and the “Activity (FICI class)” value (PA-014, blaGES; PA-014) was “S (S (Synergy, FICI ≤ 0.5))”, the “Concentrations of ATM and 5 at lowest FICI (ATM/5)” value (“Concentrations” for short) (PA-014, blaGES; PA-014) was 4/16 and the “Lowest FICI (ATM/5)” value (PA-014, blaGES; PA-014) was 0.28. For the same molecule, the “Minimum concentration of 5 to make sensitive to ATM” value (from here on “Minimum concentration”) (PA-014, blaGES; PA-014) was 4 mg/L, the “Susceptibility to ATM” value (PA-014, blaGES; PA-014, ATM/5) was “S (S (sensitive, MIC ≤ 8 mg/L))” and the “FD (fold decrease in MIC of ATM with 5)” value (PA-014, blaGES; PA-014, lowest-FICI combination) was 4. For the same molecule, the MIC (PA-014, blaGES; 5 at 1 mg/L) was 16 µg/mL, the MIC (PA-014, blaGES; 5 at 2 mg/L) was 16 µg/mL and the MIC (PA-014, blaGES; 5 at 4 mg/L) was 8 µg/mL. It also gave an MIC (PA-014, blaGES; 5 at 8 mg/L) of 8 µg/mL, an MIC (PA-014, blaGES; 5 at 16 mg/L) of 4 µg/mL and an MIC (PA-014, blaGES; 5 at 32 mg/L) of 4 µg/mL. For the same molecule, the MIC (PA-014, blaGES; 5 at 64 mg/L) was 4 µg/mL, the “Activity (FICI class)” value (PA-027, blaIMP; PA-027) was “S (S (Synergy, FICI ≤ 0.5))” and the “Concentrations” value (PA-027, blaIMP; PA-027) was 8/4. The “Lowest FICI (ATM/5)” value (PA-027, blaIMP; PA-027) was 0.26, the “Minimum concentration” value (PA-027, blaIMP; PA-027) was 4 mg/L and the “Susceptibility to ATM” value (PA-027, blaIMP; PA-027, ATM/5) was “S (S (sensitive, MIC ≤ 8 mg/L))”. The “FD (fold decrease in MIC of ATM with 5)” value (PA-027, blaIMP; PA-027, lowest-FICI combination) was 4, the MIC (PA-027, blaIMP; 5 at 1 mg/L) was 32 µg/mL and the MIC (PA-027, blaIMP; 5 at 2 mg/L) was 16 µg/mL. For the same molecule, the MIC (PA-027, blaIMP; 5 at 4 mg/L) was 8 µg/mL, the MIC (PA-027, blaIMP; 5 at 8 mg/L) was 4 µg/mL and the MIC (PA-027, blaIMP; 5 at 16 mg/L) was 2 µg/mL. The MIC (PA-027, blaIMP; 5 at 32 mg/L) was 2 µg/mL, the MIC (PA-027, blaIMP; 5 at 64 mg/L) was 2 µg/mL and the “Activity (FICI class)” value (PA-035, blaGES; PA-035) was “S (S (Synergy, FICI ≤ 0.5))”. For the same molecule, the “Concentrations” value (PA-035, blaGES; PA-035) was 2/8, the “Lowest FICI (ATM/5)” value (PA-035, blaGES; PA-035) was 0.27 and the “Susceptibility to ATM” value (PA-035, blaGES; PA-035, ATM/5) was “S (S (sensitive, MIC ≤ 8 mg/L))”. For the same molecule, the “FD (fold decrease in MIC of ATM with 5)” value (PA-035, blaGES; PA-035, lowest-FICI combination) was 4, the MIC (PA-035, blaGES; 5 at 1 mg/L) was 8 µg/mL and the MIC (PA-035, blaGES; 5 at 2 mg/L) was 4 µg/mL. The MIC (PA-035, blaGES; 5 at 4 mg/L) was 4 µg/mL, the MIC (PA-035, blaGES; 5 at 8 mg/L) was 2 µg/mL and the MIC (PA-035, blaGES; 5 at 16 mg/L) was 2 µg/mL. The MIC (PA-035, blaGES; 5 at 32 mg/L) was 2 µg/mL, the MIC (PA-035, blaGES; 5 at 64 mg/L) was 2 µg/mL and the “Activity (FICI class)” value (PA-026, blaNDM; PA-026) was “S (S (Synergy, FICI ≤ 0.5))”. The “Concentrations” value (PA-026, blaNDM; PA-026) was 2/4, the “Lowest FICI (ATM/5)” value (PA-026, blaNDM; PA-026) was 0.26 and the “Susceptibility to ATM” value (PA-026, blaNDM; PA-026, ATM/5) was “S (S (sensitive, MIC ≤ 8 mg/L))”. For the same molecule, the “FD (fold decrease in MIC of ATM with 5)” value (PA-026, blaNDM; PA-026, lowest-FICI combination) was 4, the MIC (PA-026, blaNDM; 5 at 1 mg/L) was 4 µg/mL and the MIC (PA-026, blaNDM; 5 at 2 mg/L) was 4 µg/mL. For the same molecule, the MIC (PA-026, blaNDM; 5 at 4 mg/L) was 2 µg/mL, the MIC (PA-026, blaNDM; 5 at 8 mg/L) was 2 µg/mL and the MIC (PA-026, blaNDM; 5 at 16 mg/L) was 1 µg/mL. For the same molecule, the MIC (PA-026, blaNDM; 5 at 32 mg/L) was 1 µg/mL, the MIC (PA-026, blaNDM; 5 at 64 mg/L) was 1 µg/mL and the MIC50 ([1]; read-out: MIC50 of ATM, 5 at 1 mg/L) was 4 µg/mL (≈ 8.92 µM). It also gave an MIC50 ([1]; read-out: MIC50 of ATM, 5 at 2 mg/L) of 2 µg/mL (≈ 4.46 µM), an MIC50 ([1]; read-out: MIC50 of ATM, 5 at 4 mg/L) of 2 µg/mL (≈ 4.46 µM) and an MIC50 ([1]; read-out: MIC50 of ATM, 5 at 8 mg/L) of 2 µg/mL (≈ 4.46 µM). For the same molecule, the MIC50 ([1]; read-out: MIC50 of ATM, 5 at 16 mg/L) was 1 µg/mL (≈ 2.23 µM), the MIC50 ([1]; read-out: MIC50 of ATM, 5 at 32 mg/L) was 1 µg/mL (≈ 2.23 µM) and the MIC50 ([1]; read-out: MIC50 of ATM, 5 at 64 mg/L) was 1 µg/mL (≈ 2.23 µM). It also gave an MIC90 ([1]; read-out: MIC90 of ATM, 5 at 1 mg/L) of 8 µg/mL (≈ 17.8 µM), an MIC90 ([1]; read-out: MIC90 of ATM, 5 at 2 mg/L) of 4 µg/mL (≈ 8.92 µM) and an MIC90 ([1]; read-out: MIC90 of ATM, 5 at 4 mg/L) of 4 µg/mL (≈ 8.92 µM). The MIC90 ([1]; read-out: MIC90 of ATM, 5 at 8 mg/L) was 2 µg/mL (≈ 4.46 µM), the MIC90 ([1]; read-out: MIC90 of ATM, 5 at 16 mg/L) was 2 µg/mL (≈ 4.46 µM) and the MIC90 ([1]; read-out: MIC90 of ATM, 5 at 32 mg/L) was 2 µg/mL (≈ 4.46 µM). The MIC90 ([1]; read-out: MIC90 of ATM, 5 at 64 mg/L) was 2 µg/mL (≈ 4.46 µM), the “Activity (FICI class)” value (PA-031, blaNDM; PA-031) was “S (S (Synergy, FICI ≤ 0.5))” and the “Concentrations” value (PA-031, blaNDM; PA-031) was 1/8. The “Lowest FICI (ATM/5)” value (PA-031, blaNDM; PA-031) was 0.27, the “Susceptibility to ATM” value (PA-031, blaNDM; PA-031, ATM/5) was “S (S (sensitive, MIC ≤ 8 mg/L))” and the “FD (fold decrease in MIC of ATM with 5)” value (PA-031, blaNDM; PA-031, lowest-FICI combination) was 4. The MIC (PA-031, blaNDM; 5 at 1 mg/L) was 2 µg/mL, the MIC (PA-031, blaNDM; 5 at 2 mg/L) was 2 µg/mL and the MIC (PA-031, blaNDM; 5 at 4 mg/L) was 2 µg/mL. The MIC (PA-031, blaNDM; 5 at 8 mg/L) was 1 µg/mL, the MIC (PA-031, blaNDM; 5 at 16 mg/L) was 1 µg/mL and the MIC (PA-031, blaNDM; 5 at 32 mg/L) was 1 µg/mL. For the same molecule, the MIC (PA-031, blaNDM; 5 at 64 mg/L) was 1 µg/mL, the “Activity (FICI class)” value (PA-036, blaNDM; PA-036) was “S (S (Synergy, FICI ≤ 0.5))” and the “Concentrations” value (PA-036, blaNDM; PA-036) was 4/8. For the same molecule, the “Lowest FICI (ATM/5)” value (PA-036, blaNDM; PA-036) was 0.27, the “Minimum concentration” value (PA-036, blaNDM; PA-036) was 4 mg/L and the “Susceptibility to ATM” value (PA-036, blaNDM; PA-036, ATM/5) was “S (S (sensitive, MIC ≤ 8 mg/L))”. The “FD (fold decrease in MIC of ATM with 5)” value (PA-036, blaNDM; PA-036, lowest-FICI combination) was 4, the MIC (PA-036, blaNDM; 5 at 1 mg/L) was 16 µg/mL and the MIC (PA-036, blaNDM; 5 at 2 mg/L) was 16 µg/mL. The MIC (PA-036, blaNDM; 5 at 4 mg/L) was 8 µg/mL, the MIC (PA-036, blaNDM; 5 at 8 mg/L) was 4 µg/mL and the MIC (PA-036, blaNDM; 5 at 16 mg/L) was 4 µg/mL. For the same molecule, the MIC (PA-036, blaNDM; 5 at 32 mg/L) was 4 µg/mL, the MIC (PA-036, blaNDM; 5 at 64 mg/L) was 4 µg/mL and the “Activity (FICI class)” value (PA-033, blaNDM; PA-033) was “I (I (indifference, 0.5 < FICI ≤ 4))”. The “Concentrations” value (PA-033, blaNDM; PA-033) was 1/8, the “Lowest FICI (ATM/5)” value (PA-033, blaNDM; PA-033) was 0.52 and the “Susceptibility to ATM” value (PA-033, blaNDM; PA-033, ATM/5) was “S (S (sensitive, MIC ≤ 8 mg/L))”. For the same molecule, the “FD (fold decrease in MIC of ATM with 5)” value (PA-033, blaNDM; PA-033, lowest-FICI combination) was 2, the MIC (PA-033, blaNDM; 5 at 1 mg/L) was 2 µg/mL and the MIC (PA-033, blaNDM; 5 at 2 mg/L) was 2 µg/mL. For the same molecule, the MIC (PA-033, blaNDM; 5 at 4 mg/L) was 2 µg/mL, the MIC (PA-033, blaNDM; 5 at 8 mg/L) was 1 µg/mL and the MIC (PA-033, blaNDM; 5 at 16 mg/L) was 1 µg/mL. The MIC (PA-033, blaNDM; 5 at 32 mg/L) was 1 µg/mL, the MIC (PA-033, blaNDM; 5 at 64 mg/L) was 1 µg/mL and the “Activity (FICI class)” value (PA-042, blaIMP/NDM) was “I (I (indifference, 0.5 < FICI ≤ 4))”. For the same molecule, the “Concentrations” value (PA-042, blaIMP/NDM) was 1/4, the “Lowest FICI (ATM/5)” value (PA-042, blaIMP/NDM) was 0.51 and the “Susceptibility to ATM” value (PA-042, blaIMP/NDM; ATM/5) was “S (S (sensitive, MIC ≤ 8 mg/L))”.
